Experiments:
[1] = system: MDA-MB-231; experiment: MTT cytotoxic activity against breast MDA-MB-231 cancer cell line; type: cell-based; settings: Homo sapiens, MDA-MB-231; MTT assay, 24 h treatment
Excerpt: All the synthesised compounds were screened for their cytotoxic activity against breast MDA-MB-231 cancer cell line and compounds 6 and 12 against breast MCF-10A cell line taking CA-4 as a positive control for the analysis. The in vitro cytotoxicity results of the prepared compounds were systematised in Table 1. […] Structurally, the prepared molecules contain three structural variations; including rotatable hydrazide derivatives, the core exchange with imidazolone ring, and the ring expansion with triazinone motif. […] It is noticed that directly attached benzene ring to triazinone scaffold (compound 6) or bioisosteric group (thiazolyl ester) as in compound 12, may contribute to the astonishing cytotoxicity against breast MDA-MB-231 cancer cells.
To measure the cytotoxic activity of the synthesised derivatives 2a–13e in breast cancer (MDA-MB-231) cell line. MTT assay method was applied to assess cell viability assay. All experimental steps were conducted as reported earlier.
Part I: Biological Studies
4.3. Biological evaluation
4.3.1. Cytotoxic activity evaluation
The cytotoxic actvity of the synthesized derivatives 2a-13e was measured in MDA-MB-231 breast cancer cell line and derivatives 6 and 12 in MCF-10A […].
Cell viability assay was assessed using MTT assay method. Cells at density of 1 x 104 were seeded in a 96-well plate at 37 °C for 24 h under 5% CO2. After incubation, the cells were treated with different concentrations of the test schiff bases 2a-13e and incubated for 24 h, then 20 µl of MTT solution at 5 mg/mL was applied and incubated for 4 h at 37 °C.
Dimethyl sulphoxide (DMSO) in volume of 100 µl was added to each well to dissolve the purple formazan that had formed. The color intensity of the formazan product, which represents the growth condition of the cells, is quantified by using an ELISA plate reader (EXL 800, USA) at 570 nm absorbance. The experimental conditions were carried out with at least three replicates, and the experiments were repeated at least three times. […]

melting point [°C] | SMILES | IC50 [1] [µM]
212 to 214 | COc1cc(C=C2N=C(c3cc(OC)c(OC)c(OC)c3)N(c3nc(-c4ccccc4)cs3)NC2=O)cc(OC)c1OC [Compound 13a, 2-(4-Phenylthiazol-2-yl)-5-(3,4,5-trimethoxybenzylidene)-3–(3,4,5-trimethoxyphenyl)-1,2-dihydro-1,2,4-triazin-6(5H)-one] | 19.6 ± 1.42
210 to 212 | CCOC(=O)Cc1csc(NNC(=O)C(=Cc2cc(OC)c(OC)c(OC)c2)NC(=O)c2cc(OC)c(OC)c(OC)c2)n1 [Compound 10, ethyl 2-(2-(2-(2-(3,4,5-trimethoxybenzamido)-3-(3,4,5-trimethoxyphenyl)acryloyl)hydrazinyl)thiazol-4-yl)acetate] | 4.8 ± 0.21
199 to 201 | COc1cc(C=C2N=C(c3cc(OC)c(OC)c(OC)c3)N(C(=O)c3cccc(OC(C)=O)c3)NC2=O)cc(OC)c1OC (hydrate or solvate) [Compound 7, 3-(6-oxo-5–(3,4,5-trimethoxybenzylidene)-3-(3,4,5-trimethoxyphenyl)-1,2,5,6-tetrahydro-1,2,4-triazine-2-carbonyl)phenyl acetate] | –
212 to 214 | COc1cc(C=C(NC(=O)c2cc(OC)c(OC)c(OC)c2)C(=O)NNC(=S)Nc2ccccc2)cc(OC)c1OC [Compound 3, 3,4,5-trimethoxy-N-(3-oxo-3-(2-(phenylcarbamothioyl)hydrazinyl)-1-(3,4,5-trimethoxyphenyl)prop-1-en-2-yl)benzamide] | 14.9 ± 0.8
212 to 214 | COc1cccc(-c2csc(N3NC(=O)C(=Cc4cc(OC)c(OC)c(OC)c4)N=C3c3cc(OC)c(OC)c(OC)c3)n2)c1 [Compound 13e, 2-(4-(3-Methoxyphenyl)thiazol-2-yl)-5-(3,4,5-trimethoxybenzylidene)-3-(3,4,5-trimethoxyphenyl)-1,2-dihydro-1,2,4-triazin-6(5H)-one] | 33.5 ± 2.47
– | COc1cc(C=C(NC(=O)c2cc(OC)c(OC)c(OC)c2)C(=O)NNC(N)=S)cc(OC)c1OC [Compound 8, N-(3-(2-carbamothioylhydrazinyl)-3-oxo-1-(3,4,5-trimethoxyphenyl)prop-1-en-2-yl)-3,4,5-trimethoxybenzamide] | 31.5 ± 1.82
212 to 214 | COc1cc(C=C(NC(=O)c2cc(OC)c(OC)c(OC)c2)C(=O)NNc2nc(-c3ccc(Br)cc3)cs2)cc(OC)c1OC [Compound 11c, N-(3-(2-(4-(4-bromophenyl)thiazol-2-yl)hydrazinyl)-3-oxo-1-(3,4,5-trimethoxyphenyl)prop-1-en-2-yl)-3,4,5-trimethoxybenzamide] | 25.7 ± 1.9
227 to 229 | COc1cc(C=C(NC(=O)c2cc(OC)c(OC)c(OC)c2)C(=O)NNC(=O)c2ccncc2)cc(OC)c1OC [Compound 2c, N-(3-(2-isonicotinoylhydrazinyl)-3-oxo-1-(3,4,5-trimethoxyphenyl)prop-1-en-2-yl)-3,4,5-trimethoxybenzamide] | 13.2 ± 0.71
205 to 207 | COc1cc(C=C2N=C(c3cc(OC)c(OC)c(OC)c3)N(N)C2=O)cc(OC)c1OC [Compound 5, 1-amino-4-(3,4,5-trimethoxybenzylidene)-2-(3,4,5-trimethoxyphenyl)-1H-imidazol-5(4H)-one] | 57.1 ± 3.23
212 to 214 | COc1cc(C=C(NC(=O)c2cc(OC)c(OC)c(OC)c2)C(=O)NNc2nc(-c3cccc([N+](=O)[O-])c3)cs2)cc(OC)c1OC [Compound 11d, 3,4,5-Trimethoxy-N-(3-(2-(4-(3-nitrophenyl)thiazol-2-yl)hydrazinyl)-3-oxo-1–(3,4,5-trimethoxyphenyl)prop-1-en-2-yl)benzamide] | 12.2 ± 0.65
212 to 214 | COc1cc(C=C2N=C(c3cc(OC)c(OC)c(OC)c3)N(c3nc(-c4ccc(Cl)cc4)cs3)NC2=O)cc(OC)c1OC [Compound 13b, 2-(4-(4-Chlorophenyl)thiazol-2-yl)-5-(3,4,5-trimethoxybenzylidene)-3-(3,4,5-trimethoxyphenyl)-1,2-dihydro-1,2,4-triazin-6(5H)-one] | 20.7 ± 1.58
212 to 214 | COc1cccc(-c2csc(NNC(=O)C(=Cc3cc(OC)c(OC)c(OC)c3)NC(=O)c3cc(OC)c(OC)c(OC)c3)n2)c1 [Compound 11e, 3,4,5-Trimethoxy-N-(3-(2-(4-(3-methoxyphenyl)thiazol-2-yl)hydrazinyl)-3-oxo-1–(3,4,5-trimethoxyphenyl)prop-1-en-2-yl)benzamide] | > 100
241 to 243 | COc1cc(C=C(NC(=O)c2cc(OC)c(OC)c(OC)c2)C(=O)NNC(=O)c2cccc(O)c2)cc(OC)c1OC [Compound 2a, N-(3-(2-(3-hydroxybenzoyl)hydrazinyl)-3-oxo-1-(3,4,5-trimethoxyphenyl)prop-1-en-2-yl)-3,4,5-trimethoxybenzamide] | 21.7 ± 1.17
212 to 214 | COc1cc(C=C(NC(=O)c2cc(OC)c(OC)c(OC)c2)C(=O)NNc2nc(-c3ccc(Cl)cc3)cs2)cc(OC)c1OC [Compound 11b, N-(3-(2-(4-(4-chlorophenyl)thiazol-2-yl)hydrazinyl)-3-oxo-1-(3,4,5-trimethoxyphenyl)prop-1-en-2-yl)-3,4,5-trimethoxybenzamide] | 8.59 ± 2.38
212 to 214 | COc1cc(C=C2N=C(c3cc(OC)c(OC)c(OC)c3)N(c3nc(-c4cccc([N+](=O)[O-])c4)cs3)NC2=O)cc(OC)c1OC [Compound 13d, 2-(4-(3-Nitrophenyl)thiazol-2-yl)-5-(3,4,5-trimethoxybenzylidene)-3-(3,4,5-trimethoxyphenyl)-1,2-dihydro-1,2,4-triazin-6(5H)-one] | 3.16 ± 0.17
239 to 241 | COc1cc(C=C2N=C(c3cc(OC)c(OC)c(OC)c3)N(C(N)=S)NC2=O)cc(OC)c1OC (hydrate or solvate) [Compound 9, 6-oxo-5-(3,4,5-trimethoxybenzylidene)-3-(3,4,5-trimethoxyphenyl)-5,6-dihydro-1,2,4-triazine-2(1H)-carbothioamide] | –
212 to 214 | COc1cc(C=C2N=C(c3cc(OC)c(OC)c(OC)c3)N(c3nc(-c4ccc(Br)cc4)cs3)NC2=O)cc(OC)c1OC [Compound 13c, 2-(4-(4-Bromophenyl)thiazol-2-yl)-5-(3,4,5-trimethoxybenzylidene)-3-(3,4,5-trimethoxyphenyl)-1,2-dihydro-1,2,4-triazin-6(5H)-one] | 10.1 ± 0.54
212 to 214 | COc1cc(C(=O)N/C=C(\C(=O)NNc2nc(-c3ccccc3)cs2)c2cc(OC)c(OC)c(OC)c2)cc(OC)c1OC [Compound 11a, 3,4,5-Trimethoxy-N-(3-oxo-3-(2-(4-arylthiazol-2-yl)hydrazinyl)-1-(3,4,5-trimethoxyphenyl)prop-1-en-2-yl)benzamide] | 6.21 ± 0.47
212 to 214 | COc1cc(C=C2N=C(c3cc(OC)c(OC)c(OC)c3)NC2=O)cc(OC)c1OC [Compound 4, 4-(3,4,5-trimethoxybenzylidene)-2-(3,4,5-trimethoxyphenyl)-1H-imidazol-5(4H)-one] | 36.8 ± 2.81
– | COc1cc(C=C2N=C(c3cc(OC)c(OC)c(OC)c3)N(C(=O)c3cccc(OC(C)=O)c3)NC2=O)cc(OC)c1OC [Compound 7, 3-(6-oxo-5–(3,4,5-trimethoxybenzylidene)-3-(3,4,5-trimethoxyphenyl)-1,2,5,6-tetrahydro-1,2,4-triazine-2-carbonyl)phenyl acetate] | 13.7 ± 1.04
236 to 238 | COc1cc(C=C(NC(=O)c2cc(OC)c(OC)c(OC)c2)C(=O)NNC(=O)c2ccc(Br)cc2)cc(OC)c1OC [Compound 2b, N-(3-(2-(4-bromobenzoyl)hydrazinyl)-3-oxo-1-(3,4,5-trimethoxyphenyl)prop-1-en-2-yl)-3,4,5-trimethoxybenzamide] | 39.7 ± 1.8
– | COc1cc(C=C2N=C(c3cc(OC)c(OC)c(OC)c3)N(C(N)=S)NC2=O)cc(OC)c1OC [Compound 9, 6-oxo-5-(3,4,5-trimethoxybenzylidene)-3-(3,4,5-trimethoxyphenyl)-5,6-dihydro-1,2,4-triazine-2(1H)-carbothioamide] | 4.14 ± 0.22

Source: PMC9518609, “Design and synthesis of new trimethoxylphenyl-linked combretastatin analogues loaded on diamond nanoparticles as a panel for ameliorated solubility and antiproliferative activity” (Journal of Enzyme Inhibition and Medicinal Chemistry, 2022)
